Assays:
[1] = in vivo; details: female, Sprague Dawley, rat, sc
[2] = rat, in vivo, sc
[3] = background statement; cited from earlier work

Tmax [1]: 30 min
half-life [1]: 120 min
AUC/Dose ([2]; female, Sprague Dawley): 383 pg·h/mL/mg/kg
Cmax/Cavg [2]: 2.3
time at which plasma DXM levels peaked [2]: within an hour
Structure (SMILES): Cc1cccc([C@H](C)c2cnc[nH]2)c1C [Unencapsulated DXM solution, dexmedetomidine]
t1/2 [3]: 2 h

Source: US20220273568A1, “MULT[…] FORMULATIONS OF DEXMEDETOMIDINE” (Pacira Pharmaceuticals, Inc., priority 2019, published 2022)
